# In PubChem BioAssay (NCI):
#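 Cultured in 96-well plates, cells were exposed to test compound for 48 hours across five concentrations. At the GI50, growth is halved. TGI: concentration producing complete growth inhibition.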
# Key:
# Test in all cases: NCI tumour cell line growth inhibition, 48 h
# M14 melanoma = system: M14 melanoma
# SF-539 CNS = system: SF-539 CNS
# BT-549 breast = system: BT-549 breast
# MDA-MB-231 breast = system: MDA-MB-231 breast
# NCI/ADR-RES ovarian = system: NCI/ADR-RES ovarian
# MDA-N = system: MDA-N
# HS 578T breast = system: HS 578T breast
# M19-MEL melanoma = system: M19-MEL melanoma
# DMS 273 small cell lung = system: DMS 273 small cell lung
# LXFL 529 NSCLC = system: LXFL 529 NSCLC
# SNB-78 CNS = system: SNB-78 CNS
# HOP-18 NSCLC = system: HOP-18 NSCLC
# DLD-1 colon = system: DLD-1 colon
# P388/ADR leukemia = system: P388/ADR leukemia
# P388 leukemia = system: P388 leukemia
# SN12K1 renal = system: SN12K1 renal
Compound,TGI (M14 melanoma) [µM],TGI (SF-539 CNS) [µM],TGI (BT-549 breast) [µM],TGI (MDA-MB-231 breast) [µM],TGI (NCI/ADR-RES ovarian) [µM],TGI (MDA-N) [µM],TGI (HS 578T breast) [µM],TGI (M19-MEL melanoma) [µM],TGI (DMS 273 small cell lung) [µM],TGI (LXFL 529 NSCLC) [µM],TGI (SNB-78 CNS) [µM],TGI (HOP-18 NSCLC) [µM],TGI (DLD-1 colon) [µM],TGI (P388/ADR leukemia) [µM],TGI (P388 leukemia) [µM],TGI (SN12K1 renal) [µM],GI50 (SF-539 CNS) [µM],GI50 (MDA-MB-231 breast) [µM],GI50 (NCI/ADR-RES ovarian) [µM],GI50 (HS 578T breast) [µM]
C=C1CC2(C)CCC(OC(=O)C3(C)OC3C)C(C)(OC(C)=O)C2CC1=C(C)C (centres undefined),> 100,> 100,> 100,> 100,> 100,> 100,> 100,,,,,,,,,,,,,
COc1ccc2c(c1)C(=O)/C(=C/c1ccccc1)C2,> 100,,> 100,,88.2,> 100,> 100,,,,,,,,,,,,,
COc1cc(CN(C)N2C(=O)c3cccc4cc([N+](=O)[O-])cc(c34)C2=O)cc(OC)c1OC,> 100,,> 100,> 100,> 100,> 100,> 100,,,,,,,,,,,,,
O=c1n(Cc2ccccc2)c2ccccc2n1CC1CS1 (centres undefined),> 100,> 100,,,,,,> 100,> 100,> 100,,,,,,,,,,
CCNc1nc2c(=O)n(C)c(=O)n(C)c2s1,> 100,> 100,,,,,,> 100,,> 100,> 100,> 100,> 100,,,,,,,
CC12CCC3C(CCC4(O)C=CCCC34C=O)C1(O)CC(O)C2c1ccc(=O)oc1 (centres undefined),,0.0735,,,0.282,,,0.264,0.0712,,0.97,0.371,0.098,> 500,500,0.108,,,,
Cc1cc(C)c(S(=O)(=O)N(CCCCCCN)OCCCON(CCCCCCN)S(=O)(=O)c2c(C)cc(C)cc2C)c(C)c1,3.03,3.98,3.26,3.21,34.6,3.61,4.32,,,,,,,,,,,,,
CCOC(=O)c1csc(NC(=O)CCN2CCOCC2)n1,> 100,> 100,,> 100,> 100,> 100,,,,,,,,,,,,,,
O=C(NC/C=C/CO)c1ccccc1,,> 100,,,> 100,,,> 100,> 100,,> 100,> 100,> 100,> 100,> 100,> 100,,,,
COc1ccc(-c2nnc3c4ccccc4sn23)cc1,> 100,> 100,,,,,,> 100,> 100,> 100,> 100,83.9,,,,,,,,
Fc1cc(C2=Nn3c(nnc3-c3cc(F)c(Cl)cc3Cl)SC2)c(Cl)cc1Cl,,38,,34.5,> 100,,55,,,,,,,,,,18.9,13.4,27.4,21.9
O=C1CNC(=O)N1,,> 1120,,,> 1120,,,> 1120,> 1120,,> 1120,> 1120,> 1120,> 630,> 520,> 1120,,,,
CC1(C)CCCC2(C)[C@@H]1CC[C@]13C[C@](C)(CC[C@@H]21)[C@@H]3CO (some centres undefined),> 100,> 100,,,,,,> 100,> 100,> 100,> 100,,> 100,,,,,,,
